Tests used:
[1] = tested on: antibody to SDMA; test: Fluorescence decrease of tracer A3 on complexing with anti-SDMA antibody conjugated to BHQ10 (FIG. 23); assay type: binding
Excerpt: The decrease in fluorescence of a fluorescent tracer when it forms a complex with a binding partner that is conjugated to a quencher is a function of the equivalents of quencher molecules that are conjugated to the binding partner. The more quencher molecules conjugated to the binding partner, the greater the decrease in fluorescence. This is depicted in FIG. 23 as a plot of fluorescence vs. ratio of antibody:fluorescent tracer for antibody that is conjugated to 2, 4, 6, and 8 BHQ10 quencher molecules.

[2] = tested on: anti-SDMA antibody; test: Fluorescence quenching of SDMA tracers by anti-SDMA antibody or antibody-BHQ10 (Example 34); assay type: binding; conditions: for fluorescence quenched by adding anti-SDMA antibody: antibody not conjugated to a quencher
Experimental: Solutions of anti-SDMA antibody or anti-SDMA antibody conjugated to BHQ10 (4 eq.) in phosphate buffered saline (PBS) were prepared at concentrations of 0, 0.25, 0.5, 1, 2, 4, 8, and 16 μM (antibody solution). Solutions of an SDMA fluorescent tracer (i.e., SDMA-Fl, SDMA-DFF, or SDMA-DCF) in PBS were prepared at a concentration of 100 nM (tracer solution). 50 μL of antibody solution and 50 μL of tracer solution were combined on a 96-well UV plate and incubated for 30 min. at room temperature. […] The results are depicted in FIGS. 26 and 27.

[3] = Absorption and emission spectra of fluoresceins and SDMA conjugates (Example 33); assay type: physicochemical; conditions: PBS buffer
Excerpt: The maximum absorption of fluorescein (Fl) in PBS buffer is at 489 nm and the maximum fluorescence emission is at 515 nm. When the fluorescein molecule is conjugated with an SDMA molecule via a —CH2NH— linker (i.e., to provide SDMA-Fl), its maximum absorption and emission are shifted to 495 nm and 525 nm, respectively. When the fluorescein molecule is substituted by fluorine at the 2′ and 7′ positions (i.e., to provide DFF) there is no any change in the maximum absorption and emission compared to unsubstituted fluorescein. When the fluorescein molecule is substituted by chloride at the 2′ and 7′ positions (i.e., to provide DCF) the maximum absorption and emission are red-shifted to 500 nm and 525 nm, respectively. Also conjugating DFF or DCF to SDMA via a —CH2NH— linker (i.e., to provide SDMA-DFF and SDMA DCF, respectively) results in the maximum absorption and emission being red-shifted. The maximum absorption and emission wavelengths of fluorescein (FL), 2′,7′-difluorofluorescien (DFF), 2′,7′-dichlorofluorescien (DCF), and their conjugates with SDMA via a —CH2NH— linker (i.e., SDMA-Fl (i.e., structure A3), SDMA-DFF, and SDMA-DCF) are listed in the Table provided below. The absorption spectra of DFF, SDMA-DFF, DCF, SDMA-DCF, Fl, and SDMA-FL are depicted in FIG. 25A and the emission spectra of SDMA-DFF, SDMA-DCF, Fl, and SDMA-FL are depicted in FIG. 25B.

[4] = tested on: anti-NT-proBNP-Mab; test: Canine NT-proBNP peptide P1 dose response in PBS and serum (Example 52); assay type: binding
Experimental: A mixture of NT-proBNP P1-Fl or P1-DFF in PBS (100 nM, 25 μL) and anti-NT-proBNP-Mab in PBS (100 nM, […]) were incubated at room temperature for 30 min in the wells of a 96 well black assay plate. A series of NT-proBNP peptide P1 standard solutions in PBS or charcoal stripped serum having peptide or protein concentrations ranging from 0 to 320 nM (50 μL) were then added to the mixtures of P1-Fl or P1-DFF and anti-NT-proBNP Mab in PBS. The plate was then incubated for 30 min at room temperature and the fluorescence intensities recorded at excitation at 485 nm and emission at 520 nm. The results are shown in FIG. 49, FIG. 50, FIG. 51, and FIG. 52.

[5] = tested on: Monoclonal anti-NT-proBNP antibody (ADX-15 Mab); test: Fluorescence quenching of canine NT-proBNP peptide-Fl/DFF conjugates by anti-NT-proBNP Mab and Ab-BHQ10 (Example 52); assay type: binding; conditions: No = No Quenching
Experimental: NT-proBNP peptide-fluorescein (Fl) or -difluorofluorescein (DFF) conjugates were dissolved in DMSO (0.4 mM) and diluted with PBS to provide a stock solution (100 nM). Monoclonal anti-NT-proBNP antibody (ADX-15 Mab, IDEXX Laboratories Inc. of Westbrook, ME) (6.84 mg/ml) was serially diluted in PBS buffer to provide solutions having an antibody concentration ranging from 0 to 800 nM in PBS. In a 96 well black assay plate containing the serially diluted antibody solution (50 μL) was added the P1-Fl or P1-DFF, or other peptide-Fl or Peptide-DFF solution (50 μL), mixed well, incubated for 30 min and the fluorescence intensities recorded (excitation at 485 nm and emission at 520 nm). The results are provided in FIG. 47, FIG. 48, and Table 2.

[6] = tested on: Cy5 conjugated antibody (Ab-Cy5, anti-T4-Mab); test: Fluorescence quenching of T4-F by Ab-Cy5 (Example 23); assay type: binding
Experimental: T4-F was dissolved in DMSO (1 mM) and diluted with PBS to provide a stock solution (4 μM). A series of PBS solutions of Cy5 conjugated antibody (Ab-Cy5, made as in Example 12) having Ab-Cy5 concentrations ranging from 0 to 400 nM were prepared by serial dilution. In the wells of a 96 well black assay plate was combined T4-F in PBS (5 μL) and a serially diluted Ab-Cy5 solution (95 μL) and the plate shaken for 30 min at room temperature.

[7] = tested on: anti-penicillin polyclonal antibody; test: Fluorescence of beta lactam-fluorescein conjugates with anti-penicillin antibody (Example 25); assay type: binding; conditions: tracer and antibody 200 nM
Experimental: Beta lactam antibiotics conjugated to fluorescein (i.e., AMO-FITC, AMO-F, AMP-F, and CEF-F) in PBS (400 nM, 100 μL) were mixed with either anti-penicillin or anti-cefotaxime polyclonal antibody (400 nM, 100 μL, commercially available from Novus Biologicals, LLC of Centennial, CO) in the absence of and in the presence of free beta-lactam antibiotic (ampicillin (400 nM) was added to AMP-F and cefotaxime (400 nM) was added to CEF-F) in a 96 well black assay plate. […] The solutions were incubated at room temperature for 5 min and the fluorescence intensity measured.

[8] = tested on: anti-sulfadimethoxine monoclonal antibody; test: Fluorescence of SDM-F or SDM-Su-F with anti-sulfadimethoxine monoclonal antibody (Example 26); assay type: binding
Experimental: SDM-F or SDM-Su-F in PBS (400 nM, 100 μL) was mixed with anti-sulfadimethoxine monoclonal antibody (400 nM, 100 μL, commercially available from Genway Biotech of San Diego, CA) in the absence of and the presence of sulfadimethoxine (SDM) (400 nM). The resulting solutions were incubated at room temperature for 5 min and the fluorescence intensity then measured.

[9] = tested on: anti-T4 antibody; test: Maximum percentage fluorescence quenching of T2-F, T3-F, T4-F by anti-T4 antibody with and without quencher label (Example 27 table); assay type: binding
Experimental: In another experiment, tracer T2-F, T3-F, or T4-F was dissolved in DMSO to provide a DMSO solution at a tracer concentration of 1 mM. The DMSO solution was then diluted with phosphate buffered saline (“PBS”) to provide a stock solution of each tracer at a concentration of 10 μM. Monoclonal anti-T4-Mab or anti-T4-Mab conjugated to a quencher (Cy3-Ab, IRdyeQC1-Ab, Cy5-Ab, BHQ1-Ab) were serially diluted in PBS to provide solutions having an Anti-T4-Mab or anti-T4-Mab conjugated to quencher at concentration ranging from 0 to 2 μM. In a 96 well black assay plate containing the serially diluted Anti-T4-Mab or anti-T4-Mab conjugated to quencher (95 μL) was added the tracer T2-F, T3-F, or T4-F solution (5 μL), mixed well, and incubated for 30 min and the fluorescence intensities then recorded at an excitation wavelength of 485 nm and an emission wavelength of 520 nm. The results of maximum percentage fluorescence quenching for different tracers and quencher-modified antibodies are provided in the following Table: […]

[10] = tested on: anti-NT-proBNP Mab; test: Canine NT-proBNP full length protein dose response (Example 52); assay type: binding
Experimental: A mixture of NT-proBNP P1-Fl or P1-DFF in PBS (200 nM, 10 μL) and anti-NT-proBNP Mab in PBS (200 nM, 10 μL) were incubated at room temperature for 30 min in the wells of a 96 well black assay plate. A series of NT-proBNP peptide P1 standard solutions in PBS having NT-proBNP full length protein (lyophilized powder synthesized by New England Biolabs of Ipswich, MA) at concentrations ranging from 0 to 320 nM (80 μL) were then added to the mixtures of P1-Fl or P1-DFF and anti-NT-proBNP Mab in PBS. The plate was then incubated for 30 min at room temperature and the fluorescence intensities recorded at an excitation of 485 nm and an emission of 520 nm.

C/N=C(\NC)NCCC[C@@H](N)C(=O)NCc1c(O)ccc2c(-c3ccccc3C(=O)O)c3ccc(=O)cc-3oc12 (stereo in doubt) [SDMA-Fl]
maximum decrease in fluorescence ([1]; antibody conjugated to 2 equivalents of BHQ10): about 50%
maximum decrease in fluorescence ([1]; antibody conjugated to 8 equivalents of BHQ10): about 70%
fluorescence quenched by adding anti-SDMA antibody [2]: about 30%
Max Absorption [3]: 495 nm
Max Emision [3]: 525 nm

AEQLALEPLHRS [P1, canine NT-proBNP peptide]
fluorescence intensity as a function of NT-proBNP peptide P1 concentration ([4]; PBS, mixture of P1-Fl or P1-DFF with Ab or Ab-BHQ10): a dose response was observed
dose response of P1 peptide in serum ([4]; charcoal stripped serum, P1-Fl or P1-DFF): produced a dose response
Percentage Fluorescence Quenching, DFF Conjugate, Ab-BHQ10 ([5]; NT-proBNP peptide-difluorofluorescein conjugate, mAb-BHQ10, molar ratio of 1:1): 64.7%
Percentage Fluorescence Quenching, DFF Conjugate, Ab ([5]; NT-proBNP peptide-difluorofluorescein conjugate, molar ratio of 1:1): 63.3%
Percentage Fluorescence Quenching, F1 Conjugate, Ab ([5]; NT-proBNP peptide-fluorescein conjugate, Ab/Conjugate molar ratio of 1:1): 39.4%
Percentage Fluorescence Quenching, F1 Conjugate, Ab-BHQ10 ([5]; NT-proBNP peptide-fluorescein conjugate, mAb-BHQ10, molar ratio of 1:1): 40.2%

CCN1/C(=C/C=C/C=C/C2=[N+](CCCCCC(=O)O)c3ccc(S(=O)(=O)O)cc3C2(C)C)C(C)(C)c2cc(S(=O)(=O)[O-])ccc21 [Cy5, reference compound]
quenching of T4-F fluorescence by Cy5 alone (not conjugated to Anti-T4-Mab) [6]: did not quench fluorescence

CC1(C)SC2C(NC(=O)C(NCc3c(O)ccc4c(-c5ccccc5C(=O)O)c5ccc(=O)cc-5oc34)c3ccccc3)C(=O)N2C1C(=O)O (stereo not shown) [AMP-F, Ampicillin-Fluorescein]
fluorescence quenching by anti-penicillin antibody [7]: quenched

COc1cc(NS(=O)(=O)c2ccc(NCc3c(O)ccc4c(-c5ccccc5C(=O)O)c5ccc(=O)cc-5oc34)cc2)nc(OC)n1 [SDM-F, Sulfadimethoxine-Fluorescein]
amount of quenching compared to SDM-Su-F [8]: greater amount of quenching
fluorescence quenching by anti-sulfadimethoxine monoclonal antibody [8]: quenched

CNC(=NCCCC(N)C(=O)NCc1c(O)c(F)cc2c(-c3ccccc3C(=O)O)c3cc(F)c(=O)cc-3oc12)NC (stereo not shown) [SDMA-DFF]
quenching efficiency in comparison with SDMA-Fl ([2]; anti-SDMA antibody conjugated to BHQ10 (4 eq.)): slightly greater
fluorescence quenched by adding anti-SDMA antibody [2]: about 50%
Max Absorption [3]: 437 nm
Max Emision [3]: 525 nm

CC1(C)SC2C(NC(=O)C(NCc3c(O)ccc4c(-c5ccccc5C(=O)O)c5ccc(=O)cc-5oc34)c3ccc(O)cc3)C(=O)N2C1C(=O)O (stereo not shown) [AMO-F, Amoxicillin-Fluorescein]
fluorescence quenching by anti-penicillin antibody [7]: quenched

O=C(O)c1ccccc1-c1c2ccc(=O)cc-2oc2c(CNC(Cc3cc(I)c(Oc4cc(I)c(O)c(I)c4)c(I)c3)C(=O)O)c(O)ccc12 (stereo not shown) [T4-F]
Percentage of fluorescence quenching, BHQ1-Ab ([9]; anti-T4-Mab conjugated to BHQ1): No
Percentage of fluorescence quenching, Cy5-Ab ([9]; anti-T4-Mab conjugated to Cy5): 31%
Percentage of fluorescence quenching, Ab ([9]; anti-T4-Mab without quencher): No
quenching efficiency ([6]; ratio of T4-F: Ab-Cy5 of about 1:1): about 70%

COc1cc(NS(=O)(=O)c2ccc(NC(=O)CCC(=O)NCc3c(O)ccc4c(-c5ccccc5C(=O)O)c5ccc(=O)cc-5oc34)cc2)nc(OC)n1 [SDM-Su-F, Sulfadimethoxine-Succinic-Fluorescein]
fluorescence quenching by anti-sulfadimethoxine monoclonal antibody [8]: quenched

CC1(C)SC2C(NC(=O)C(NC(=S)Nc3ccc(-c4c5ccc(=O)cc-5oc5cc(O)ccc45)c(C(=O)O)c3)c3ccc(O)cc3)C(=O)N2C1C(=O)O (stereo not shown) [AMO-FITC]
fluorescence quenching by anti-penicillin antibody [7]: not quenched

B1: full length NT-proBNP protein: canine NT-proBNP, SEQ ID NO: 14 (protein, listed as Canis familiaris)
chain: HPLGGRSPASEASEASEASGLWAVQELLGRLKDAVSELQAEQLALEPLHRSHSPAEAPEAGGTPRGVLAPHDSVLQALR
dose response of full length NT-proBNP spiked into charcoal stripped serum ([10]; P1-Fl/Ab or P1-DFF/Ab): dose response was also observed
fluorescence intensity as a function of full length NT-proBNP protein concentration ([10]; PBS, P1-Fl/Ab or P1-DFF/Ab at 1:1): a dose response was observed

Source: patent US12345641B2, “Fluorescence quenching immunoassay” (IDEXX Laboratories, Inc., priority 2020, dated 2025)
